According to patent publication US20100267561A1, “HERBICIDAL PYRIDAZINONE DERIVATIVES” (priority 2007, published 2010):

Tests used:
Format in all cases: in vivo
[1] = test system: winter barley (Hordeum vulgare); assay: Test B postemergence plant response; conditions: Postemergence, scale 0 to 100
Summary of the method: (§1)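 Compounds applied after emergence to 2–18 cm plants; response read visually 13–15 days later on 0 (none) to 100 (complete control); a dash marks no result.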

[2] = test system: chickweed (Stellaria media); assay: Test B postemergence plant response; conditions: Postemergence
Summary of the method: as §1

[3] = test system: windgrass (Apera spica-venti); assay: Test B postemergence plant response; conditions: Postemergence
Summary of the method: as §1

[4] = test system: eastern black (E.B.) nightshade (Solanum ptycanthum); assay: Test B pre-/postemergence plant response; conditions: Preemergence
Summary of the method: (§2)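 Preemergence and postemergence (plants 2-18 cm, 1- to 4-leaf stage) applications used test chemicals in a non-phytotoxic solvent with surfactant. Plants were held in a greenhouse 13 to 15 days, then rated visually against controls on a 0-100 scale (0 no effect, 100 complete control).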

[5] = test system: surinam grass (Brachiaria decumbens); assay: Test B pre-/postemergence plant response
Summary of the method: as §2

[6] = test system: Italian ryegrass (Lolium multiflorum); assay: Test B pre-/postemergence plant response
Summary of the method: as §2

[7] = test system: green foxtail (Setaria viridis); assay: Test B pre-/postemergence plant response
Summary of the method: as §2

[8] = test system: goosegrass (Eleusine indica); assay: Test B pre-/postemergence plant response
Summary of the method: as §2

[9] = test system: wheat (Triticum aestivum); assay: Test B pre-/postemergence plant response
Summary of the method: as §2

[10] = test system: large crabgrass (Digitaria sanguinalis); assay: Test B pre-/postemergence plant response
Summary of the method: as §2

[11] = test system: cocklebur (Xanthium strumarium); assay: Test B pre-/postemergence plant response
Summary of the method: as §2

[12] = test system: johnsongrass (Sorghum halepense); assay: Test B pre-/postemergence plant response
Summary of the method: as §2

[13] = test system: morningglory (Ipomoea coccinea); assay: Test B pre-/postemergence plant response
Summary of the method: as §2

soybean (Glycine max) = assay: Test B pre-/postemergence plant response
Summary of the method: as §2

[14] = test system: bermudagrass (Cynodon dactylon); assay: Test B pre-/postemergence plant response
Summary of the method: as §2

[15] = 31 g ai/ha, scale 0 to 100, 0 no effect, 100 complete control
[16] = Postemergence, 31 g ai/ha, scale 0 to 100, 0 no effect, 100 complete control
[17] = Postemergence, 62 g ai/ha, scale 0 to 100
[18] = Postemergence, 125 g ai/ha, scale 0 to 100
[19] = Postemergence, 250 g ai/ha, scale 0 to 100
[20] = Preemergence, 31 g ai/ha, 0 to 100 scale, 0 no effect, 100 complete control
[21] = Preemergence, 62 g ai/ha, scale 0 to 100
[22] = Preemergence, 125 g ai/ha, scale 0 to 100
[23] = Preemergence, 250 g ai/ha, scale 0 to 100

5-[3-(4-chlorophenyl)-5-methyl-1H-pyrazol-1-yl]-1,6-dihydro-1-methyl-6-oxo-4-pyridazinyl-1-methylethyl carbonate [Compound 7]
0: Plant response rating, Barley ([1]; 62 g ai/ha) | Plant response rating, Barley ([1]; 125 g ai/ha) | Plant response rating, Barley ([1]; 250 g ai/ha) | Plant response rating, Chickweed [2, 15] | Plant response rating, Chickweed ([2]; 62 g ai/ha, scale 0 to 100) | Plant response rating, Chickweed ([2]; 125 g ai/ha, scale 0 to 100) | Plant response rating, Chickweed ([2]; 250 g ai/ha, scale 0 to 100) | Plant response rating, Wheat [9, 20] | Plant response rating, Cocklebur [11, 16] | Plant response rating, Cocklebur [11, 17] | Plant response rating, Cocklebur [11, 18] | Plant response rating, Cocklebur [11, 19] | Plant response rating, Cocklebur [11, 20] | Plant response rating, Cocklebur [11, 21] | Plant response rating, Cocklebur [11, 22] | Plant response rating, Cocklebur [11, 23] | Plant response rating, Johnsongrass [12, 18] | Plant response rating, Johnsongrass [12, 19] | Plant response rating, Morningglory [13, 16] | Plant response rating, Morningglory [13, 17] | Plant response rating, Morningglory [13, 18] | Plant response rating, Morningglory [13, 19] | Plant response rating, Morningglory [13, 20] | Plant response rating, Morningglory [13, 21] | Plant response rating, Morningglory [13, 22] | Plant response rating, Morningglory [13, 23] | Plant response rating, Soybean (soybean (Glycine max); [16]) | Plant response rating, Soybean (soybean (Glycine max); [17]) | Plant response rating, Soybean (soybean (Glycine max); [22]) | Plant response rating, Soybean (soybean (Glycine max); [23])
30: Plant response rating, Nightshade, E. B. ([4]; 31 g ai/ha, 0 to 100 scale, 0 no effect, 100 complete control) | Plant response rating, Nightshade, E. B. ([4]; 62 g ai/ha, scale 0 to 100)
80: Plant response rating, Windgrass [3, 15] | Plant response rating, Wheat [9, 17] | Plant response rating, Wheat [9, 22]
65: Plant response rating, Wheat [9, 21]
98: Plant response rating, Surinam Grass [5, 20] | Plant response rating, Johnsongrass [12, 21]
90: Plant response rating, Ryegrass, Italian [6, 20] | Plant response rating, Goosegrass [8, 21] | Plant response rating, Bermudagrass [14, 21] | Plant response rating, Bermudagrass [14, 22]
85: Plant response rating, Windgrass ([3]; 62 g ai/ha, scale 0 to 100) | Plant response rating, Goosegrass [8, 20]
75: Plant response rating, Foxtail, Green [7, 16] | Plant response rating, Johnsongrass [12, 20]
100: Plant response rating, Windgrass ([3]; 125 g ai/ha, scale 0 to 100) | Plant response rating, Windgrass ([3]; 250 g ai/ha, scale 0 to 100) | Plant response rating, Nightshade, E. B. ([4]; 125 g ai/ha, scale 0 to 100) | Plant response rating, Nightshade, E. B. ([4]; 250 g ai/ha, scale 0 to 100) | Plant response rating, Surinam Grass [5, 16] | Plant response rating, Surinam Grass [5, 17] | Plant response rating, Surinam Grass [5, 18] | Plant response rating, Surinam Grass [5, 19] | Plant response rating, Surinam Grass [5, 21] | Plant response rating, Surinam Grass [5, 22] | Plant response rating, Surinam Grass [5, 23] | Plant response rating, Ryegrass, Italian [6, 17] | Plant response rating, Ryegrass, Italian [6, 18] | Plant response rating, Ryegrass, Italian [6, 19] | Plant response rating, Ryegrass, Italian [6, 21] | Plant response rating, Ryegrass, Italian [6, 22] | Plant response rating, Ryegrass, Italian [6, 23] | Plant response rating, Foxtail, Green [7, 17] | Plant response rating, Foxtail, Green [7, 18] | Plant response rating, Foxtail, Green [7, 19] | Plant response rating, Foxtail, Green [7, 20] | Plant response rating, Foxtail, Green [7, 21] | Plant response rating, Foxtail, Green [7, 22] | Plant response rating, Foxtail, Green [7, 23] | Plant response rating, Goosegrass [8, 17] | Plant response rating, Goosegrass [8, 18] | Plant response rating, Goosegrass [8, 19] | Plant response rating, Goosegrass [8, 22] | Plant response rating, Goosegrass [8, 23] | Plant response rating, Crabgrass, Large [10, 16] | Plant response rating, Crabgrass, Large [10, 17] | Plant response rating, Crabgrass, Large [10, 18] | Plant response rating, Crabgrass, Large [10, 19] | Plant response rating, Crabgrass, Large [10, 20] | Plant response rating, Crabgrass, Large [10, 21] | Plant response rating, Crabgrass, Large [10, 22] | Plant response rating, Crabgrass, Large [10, 23] | Plant response rating, Johnsongrass [12, 22] | Plant response rating, Johnsongrass [12, 23] | Bermudagrass plant response rating ([14]; 250 g ai/ha, preemergence, 0-100 scale) | Plant response rating, Bermudagrass [14, 16] | Plant response rating, Bermudagrass [14, 17] | Plant response rating, Bermudagrass [14, 18] | Plant response rating, Bermudagrass [14, 19]
60: Plant response rating, Wheat [9, 16] | Plant response rating, Bermudagrass [14, 20]
95: Plant response rating, Ryegrass, Italian [6, 16] | Plant response rating, Goosegrass [8, 16] | Plant response rating, Wheat [9, 18] | Plant response rating, Wheat [9, 23]
